# Test results reported in ChEMBL document CHEMBL5360558, “Molecular design, synthesis and anticancer activity of new thiopyrano[2,3-d]thiazoles based on 5-hydroxy-1,4-naphthoquinone (juglone)” (Eur J Med Chem, 2023).
# Calls of active or inactive are those of the source. The rule behind the calls is not given here.
# Legend:
# SN12C [1] = assay: Growth inhibition against human SN12C cells assessed as lethal concentration incubated for 48 hrs by sulforhodamine B spectrophotometric assay; type: functional; details: read-out: LC50 (the source's name)
# Jurkat [2] = assay: Induction of apoptosis in human Jurkat cells assessed as necrotic cells at 25 uM by DNA laddering assay; type: functional, cell-based
# MDA-MB-231 [3] = assay: Growth inhibition against human MDA-MB-231 cells assessed as total growth inhibitory concentration incubated for 48 hrs by sulforhodamine B spectrophotometric assay; type: functional
# Jurkat [4] = assay: Induction of apoptosis in human Jurkat cells assessed as DNA damage by DNA laddering assay; type: functional, cell-based
# EKVX = assay: Growth inhibition against human EKVX cells assessed as total growth inhibitory concentration incubated for 48 hrs by sulforhodamine B spectrophotometric assay; type: functional
# [5] = Acute toxicity in C57BL/6 mouse assessed as ratio of lung weight to body weight at 20 mg/kg,ip administration and observed after 22 days (reference value: 0.8 +/- 0.09); type: organism-based; details: in vivo, 528 h, time 22 day
# [6] = Acute toxicity in C57BL/6 mouse assessed as ratio of liver weight to body weight at 20 mg/kg,ip administration and observed after 22 days (reference value: 5.22 +/- 0.42); type: organism-based; details: in vivo, 528 h, time 22 day
# NCI-H460 = assay: Growth inhibition of human NCI-H460 cells incubated for 48 hrs by sulforhodamine B spectrophotometric assay; type: functional
# MDA-MB-231 [7] = assay: Induction of apoptosis in human MDA-MB-231 cells assessed as increase in caspase-8 level at 5 uM incubated for 24 hrs by flow cytometry analysis; type: functional
# HCT-15 = assay: Growth inhibition of human HCT-15 cells incubated for 48 hrs by sulforhodamine B spectrophotometric assay; type: functional
# OVCAR-3 = assay: Growth inhibition against human OVCAR-3 cells assessed as total growth inhibitory concentration incubated for 48 hrs by sulforhodamine B spectrophotometric assay; type: functional
# KM12 = assay: Growth inhibition against human KM12 cells assessed as lethal concentration incubated for 48 hrs by sulforhodamine B spectrophotometric assay; type: functional; details: read-out: LC50 (the source's name)
# CCRF-CEM [8] = assay: Induction of cell cycle arrest in human CCRF-CEM cells assessed as accumulation of cells at higher G2/M phase at 4.14 uM incubated for 24 hrs by propidium iodide staining based flow cytometry analysis (reference value: 10.09 +/- 0.14%); type: functional
# U-251 [9] = assay: Growth inhibition of human U-251 cells incubated for 48 hrs by sulforhodamine B spectrophotometric assay; type: functional
# Salmon testes DNA = assay: Displacement of methyl green from salmon sperm DNA assessed as DNA intercalation at 10 uM incubated for 24 hrs by fluorescence plate reader method relative to control; type: nucleic-acid assay; details: Salmo salar
# MDA-MB-435 = assay: Growth inhibition against human MDA-MB-435 cells assessed as total growth inhibitory concentration incubated for 48 hrs by sulforhodamine B spectrophotometric assay; type: functional
# CAKI-1 = assay: Growth inhibition of human CAKI-1 cells incubated for 48 hrs by sulforhodamine B spectrophotometric assay; type: functional
# K562 [10] = assay: Growth inhibition against human K562 cells assessed as lethal concentration incubated for 48 hrs by sulforhodamine B spectrophotometric assay; type: functional; details: read-out: LC50 (the source's name)
# UO-31 = assay: Growth inhibition against human UO-31 cells assessed as total growth inhibitory concentration incubated for 48 hrs by sulforhodamine B spectrophotometric assay; type: functional
# K562 [11] = assay: Growth inhibition against human K562 cells assessed as total growth inhibitory concentration incubated for 48 hrs by sulforhodamine B spectrophotometric assay; type: functional
# SK-MEL-28 = assay: Growth inhibition against human SK-MEL-28 cells assessed as total growth inhibitory concentration incubated for 48 hrs by sulforhodamine B spectrophotometric assay; type: functional
# HT-29 = assay: Growth inhibition against human HT-29 cells assessed as total growth inhibitory concentration incubated for 48 hrs by sulforhodamine B spectrophotometric assay; type: functional
# MDA-MB-231 [12] = assay: Induction of apoptosis in human MDA-MB-231 cells assessed as increase in caspase-9 level at 5 uM incubated for 24 hrs by flow cytometry analysis; type: functional
# NCI/ADR-RES = assay: Growth inhibition against human NCI-ADR-RES cells assessed as total growth inhibitory concentration incubated for 48 hrs by sulforhodamine B spectrophotometric assay; type: functional
# MCF7 = assay: Cytotoxicity against human MCF7 cells assessed as cell growth inhibition incubated for 72 hrs by MTT assay; type: functional, cell-based; details: MCF7, 72 h
# CCRF-CEM [13] = assay: Induction of cell cycle arrest in human CCRF-CEM cells assessed as accumulation of cells at G0/G1 phase at 20.7 uM incubated for 24 hrs by propidium iodide staining based flow cytometry analysis (reference value: 38.68 +/- 0.75%); type: functional
# HCC 2998 = assay: Growth inhibition against human HCC 2998 cells assessed as total growth inhibitory concentration incubated for 48 hrs by sulforhodamine B spectrophotometric assay; type: functional
# IGROV-1 = assay: Growth inhibition of human IGROV-1 cells incubated for 48 hrs by sulforhodamine B spectrophotometric assay; type: functional
# NCI-H522 = assay: Growth inhibition of human NCI-H522 cells incubated for 48 hrs by sulforhodamine B spectrophotometric assay; type: functional
# M14 = assay: Anticancer activity against human M14 cells assessed as cell growth at 10 uM incubated for 48 hrs by sulforhodamine B assay; type: functional; details: read-out: Activity
# UACC-62 = assay: Growth inhibition of human UACC-62 cells incubated for 48 hrs by sulforhodamine B spectrophotometric assay; type: functional
# LOX IMVI = assay: Growth inhibition against human LOX IMVI cells assessed as lethal concentration incubated for 48 hrs by sulforhodamine B spectrophotometric assay; type: functional; details: read-out: LC50 (the source's name)
# [14] = Cytotoxicity against human HCT116-p53-null cells assessed as cell growth inhibition incubated for 72 hrs by MTT assay; type: functional, cell-based
# SNB-19 = assay: Growth inhibition against human SNB-19 cells assessed as lethal concentration incubated for 48 hrs by sulforhodamine B spectrophotometric assay; type: functional; details: read-out: LC50 (the source's name)
# U-251 [15] = assay: Growth inhibition against human U-251 cells assessed as total growth inhibitory concentration incubated for 48 hrs by sulforhodamine B spectrophotometric assay; type: functional
# COLO 205 [16] = assay: Growth inhibition of human COLO 205 cells incubated for 48 hrs by sulforhodamine B spectrophotometric assay; type: functional
# HOP-62 = assay: Growth inhibition against human HOP-62 cells assessed as lethal concentration incubated for 48 hrs by sulforhodamine B spectrophotometric assay; type: functional; details: read-out: LC50 (the source's name)
# NCI-H226 = assay: Growth inhibition of human NCI-H226 cells incubated for 48 hrs by sulforhodamine B spectrophotometric assay; type: functional
# SN12C [17] = assay: Growth inhibition of human SN12C cells incubated for 48 hrs by sulforhodamine B spectrophotometric assay; type: functional
# COLO 205 [18] = assay: Growth inhibition against human COLO 205 cells assessed as total growth inhibitory concentration incubated for 48 hrs by sulforhodamine B spectrophotometric assay; type: functional
# SK-MEL-2 = assay: Growth inhibition against human SK-MEL-2 cells assessed as total growth inhibitory concentration incubated for 48 hrs by sulforhodamine B spectrophotometric assay; type: functional
# DU-145 = assay: Growth inhibition against human DU-145 cells assessed as total growth inhibitory concentration incubated for 48 hrs by sulforhodamine B spectrophotometric assay; type: functional
# OVCAR-4 = assay: Growth inhibition against human OVCAR-4 cells assessed as lethal concentration incubated for 48 hrs by sulforhodamine B spectrophotometric assay; type: functional; details: read-out: LC50 (the source's name)
compound,measurement,setting,value
O=C1C2=C(C(=O)c3c(O)cccc31)C(c1ccco1)c1sc(=O)[nH]c1S2 (stereo not drawn),CC50,SN12C [1],6.99 µM
same,Activity,Jurkat [2],Active
same,TGI,MDA-MB-231 [3],9.08 µM
same,Activity,Jurkat [4],Active
same,TGI,EKVX,19.4 µM
same,Ratio,[5],0.82
same,Ratio,[6],4.54
same,GI50,NCI-H460,1.54 µM
same,Activity,MDA-MB-231 [7],19.5%
same,GI50,HCT-15,1.75 µM
same,TGI,OVCAR-3,14 µM
same,CC50,KM12,> 100 µM
same,Activity,CCRF-CEM [8],12.23%
same,GI50,U-251 [9],3.07 µM
same,Activity,Salmon testes DNA,44.3%
same,TGI,MDA-MB-435,2.47 µM
same,GI50,CAKI-1,3.29 µM
same,CC50,K562 [10],> 100 µM
same,TGI,UO-31,13.5 µM
same,TGI,K562 [11],> 100 µM
same,TGI,SK-MEL-28,3.72 µM
same,TGI,HT-29,9.25 µM
same,Activity,MDA-MB-231 [12],15%
same,TGI,NCI/ADR-RES,12.3 µM
same,IC50,MCF7,3.08 µM
same,Activity,CCRF-CEM [13],35.58%
same,TGI,HCC 2998,5.51 µM
same,GI50,IGROV-1,2.51 µM
same,GI50,NCI-H522,2.31 µM
same,growth at 10 µM,M14,-97.6%
same,GI50,UACC-62,1.76 µM
same,CC50,LOX IMVI,84 µM
same,IC50,[14],2.37 µM
same,CC50,SNB-19,26.1 µM
same,TGI,U-251 [15],10.1 µM
same,GI50,COLO 205 [16],1.89 µM
same,CC50,HOP-62,6.86 µM
same,GI50,NCI-H226,2.18 µM
same,GI50,SN12C [17],1.74 µM
same,TGI,COLO 205 [18],3.61 µM
same,TGI,SK-MEL-2,16.4 µM
same,TGI,DU-145,3.01 µM
same,CC50,OVCAR-4,8.71 µM
